Reference: ChEMBL document CHEMBL4665674, “Medicinal Chemistry Strategies for the Development of Kinase Inhibitors Targeting Point Mutations” (J Med Chem, 2020)
Each block holds one molecule with its values, some of them ahead of it.

Columns and labels:
cells = settings: Homo sapiens, HN11, 72 h
[1] = biological target: T1, Protein cereblon/Tyrosine-protein kinase BTK (Homo sapiens, UniProt Q06187+Q96SW2); assay: Induction of CRBN-mediated degradation of wild type BTK (unknown origin) expressed in B cells derived from X-linked agammaglobulinemia patient by immunoblot analysis; assay type: cell-based; settings: b-cell
[2] = biological target: T2, Protein cereblon/Tyrosine-protein kinase BTK (Homo sapiens, UniProt Q06187+Q96SW2, C481S); assay: Induction of CRBN-mediated degradation of BTK C481S mutant (unknown origin) expressed in B cells derived from X-linked agammaglobulinemia patient by immunoblot analysis; assay type: cell-based; settings: b-cell
[3] = biological target: T3, Tyrosine-protein kinase BTK (Homo sapiens, UniProt Q06187); assay: Inhibition of BTK (unknown origin)
[4] = Induction of CRBN-mediated degradation of human BTK C481T mutant expressed in human HeLa cells incubated for 4 days by Western blot analysis; assay type: cell-based; settings: 96 h
[5] = Induction of CRBN-mediated degradation of human BTK C481W mutant expressed in human HeLa cells incubated for 4 days by Western blot analysis; assay type: cell-based; settings: 96 h
[6] = biological target: T2, Protein cereblon/Tyrosine-protein kinase BTK; assay: Induction of CRBN-mediated degradation of human BTK C481S mutant expressed in human HeLa cells incubated for 4 days by Western blot analysis; assay type: cell-based
[7] = Induction of CRBN-mediated degradation of human BTK C481A mutant expressed in human HeLa cells incubated for 4 days by Western blot analysis; assay type: cell-based; settings: 96 h
[8] = biological target: T1, Protein cereblon/Tyrosine-protein kinase BTK; assay: Induction of CRBN-mediated degradation of wild type human BTK expressed in human HeLa cells incubated for 4 days by Western blot analysis; assay type: cell-based
[9] = Induction of CRBN-mediated degradation of human BTK C481G mutant expressed in human HeLa cells incubated for 4 days by Western blot analysis; assay type: cell-based; settings: 96 h
LoVo = assay: cells; assay type: functional, cell-based; settings: Homo sapiens
NCI-H1975 = assay: cells; settings: Homo sapiens
[10] = Antiproliferative activity against human NCI-H3122-CR1 cells harboring ALK L1196M mutant after 72 hrs by CellTiter-Glo assay; assay type: functional
[11] = Antiproliferative activity against human MGH021-4 cells harboring ALK G1269A mutant after 72 hrs by CellTiter-Glo assay; assay type: functional; settings: MGH0214
[12] = Inhibition of LMNA-TRKA G595R (unknown origin) expressed in mouse Ba/F3 cells assessed as antiproliferative activity incubated for 72 hrs by CellTiter-Glo luciferase-based ATP detection assay; assay type: cell-based; settings: BaF3, 72 h
[13] = Inhibition of CD74-ROS1 G2032R mutant (unknown origin) expressed in mouse Ba/F3 cells assessed as antiproliferative activity incubated for 72 hrs by CellTiter-Glo luciferase-based ATP detection assay; assay type: cell-based; settings: BaF3, 72 h
[14] = biological target: T3, Tyrosine-protein kinase BTK; assay: Inhibition of wild type BTK (unknown origin)

T3 sequence (Q06187 whole entry): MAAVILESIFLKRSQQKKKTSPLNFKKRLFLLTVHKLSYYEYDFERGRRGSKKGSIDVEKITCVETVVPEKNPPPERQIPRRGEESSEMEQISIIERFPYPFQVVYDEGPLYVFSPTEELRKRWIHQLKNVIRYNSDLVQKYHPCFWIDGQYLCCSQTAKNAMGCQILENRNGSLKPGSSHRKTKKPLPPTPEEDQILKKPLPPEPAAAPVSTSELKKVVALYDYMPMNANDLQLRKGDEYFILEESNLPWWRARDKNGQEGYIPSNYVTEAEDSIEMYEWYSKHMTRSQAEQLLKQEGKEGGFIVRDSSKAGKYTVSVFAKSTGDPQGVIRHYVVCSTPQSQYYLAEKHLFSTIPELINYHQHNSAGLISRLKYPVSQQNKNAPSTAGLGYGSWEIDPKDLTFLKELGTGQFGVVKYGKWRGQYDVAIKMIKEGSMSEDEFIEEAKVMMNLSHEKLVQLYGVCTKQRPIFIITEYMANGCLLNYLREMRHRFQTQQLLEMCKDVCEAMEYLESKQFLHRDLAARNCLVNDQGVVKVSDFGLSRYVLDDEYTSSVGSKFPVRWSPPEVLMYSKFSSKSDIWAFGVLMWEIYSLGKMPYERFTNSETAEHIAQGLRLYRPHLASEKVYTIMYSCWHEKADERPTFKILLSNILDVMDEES
T1 sequence (Q06187 whole entry): as above
T1 sequence (Q96SW2 whole entry): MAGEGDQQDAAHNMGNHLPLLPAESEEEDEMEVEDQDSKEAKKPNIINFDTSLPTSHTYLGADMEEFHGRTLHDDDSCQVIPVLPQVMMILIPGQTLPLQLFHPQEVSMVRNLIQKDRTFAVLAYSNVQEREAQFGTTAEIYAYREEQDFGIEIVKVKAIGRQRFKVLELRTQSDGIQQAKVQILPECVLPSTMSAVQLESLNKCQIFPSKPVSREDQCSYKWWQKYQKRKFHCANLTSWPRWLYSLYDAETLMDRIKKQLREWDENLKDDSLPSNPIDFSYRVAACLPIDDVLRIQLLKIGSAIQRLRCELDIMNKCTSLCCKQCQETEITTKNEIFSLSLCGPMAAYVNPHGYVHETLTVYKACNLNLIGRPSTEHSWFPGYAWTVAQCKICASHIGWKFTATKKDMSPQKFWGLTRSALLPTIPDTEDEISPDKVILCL
T2 sequence (Q06187 2-659 C481S limits assumed, stated change not applied): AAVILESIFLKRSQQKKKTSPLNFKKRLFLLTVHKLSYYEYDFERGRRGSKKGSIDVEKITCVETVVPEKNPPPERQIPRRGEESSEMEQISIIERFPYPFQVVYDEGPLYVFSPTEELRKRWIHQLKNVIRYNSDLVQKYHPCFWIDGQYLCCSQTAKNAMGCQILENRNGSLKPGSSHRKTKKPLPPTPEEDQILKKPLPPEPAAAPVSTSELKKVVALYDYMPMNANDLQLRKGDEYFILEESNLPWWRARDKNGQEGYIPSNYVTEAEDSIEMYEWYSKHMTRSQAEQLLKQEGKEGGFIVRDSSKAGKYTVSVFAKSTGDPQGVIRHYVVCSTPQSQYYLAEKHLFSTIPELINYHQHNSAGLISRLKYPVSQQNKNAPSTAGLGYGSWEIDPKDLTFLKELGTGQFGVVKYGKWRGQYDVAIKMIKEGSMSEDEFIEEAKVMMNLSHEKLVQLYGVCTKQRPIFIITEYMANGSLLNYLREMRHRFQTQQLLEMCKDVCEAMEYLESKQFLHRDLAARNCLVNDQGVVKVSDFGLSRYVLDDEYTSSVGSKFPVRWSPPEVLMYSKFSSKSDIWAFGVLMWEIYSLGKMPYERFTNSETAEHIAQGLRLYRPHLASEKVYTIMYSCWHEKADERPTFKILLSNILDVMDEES
T2 sequence (Q96SW2 whole entry, stated change not applied): as the sequence (Q96SW2 whole entry) above

Structure (SMILES): CN(C)C/C=C/C(=O)Nc1cc2c(Nc3ccc(F)c(Cl)c3)ncnc2cc1O[C@H]1CCOC1 [AFATINIB]
IC50 (LoVo): 15 nM | IC50 (NCI-H1975): 22 nM

Structure (SMILES): Cc1cc(Nc2ncc(Cl)c(Nc3ccccc3S(=O)(=O)C(C)C)n2)c(OC(C)C)cc1C1CCNCC1 [CERITINIB]
GI50 [10]: 230 nM | GI50 [11]: 80 nM

Structure (SMILES): C[C@@H](Oc1cc(-c2cnn(C3CCNCC3)c2)cnc1N)c1c(Cl)ccc(F)c1Cl [CRIZOTINIB]
GI50 [10]: 2880 nM | GI50 [11]: 500 nM

Structure (SMILES): C[C@H]1CNC(=O)c2cnn3ccc(nc23)N[C@H](C)c2cc(F)ccc2O1 [REPOTRECTINIB]
IC50 [12]: 0.4 nM | IC50 [13]: 3.3 nM

Structure (SMILES): NC(=O)[C@H]1CCN(c2ncnc(N)c2F)C[C@@H]1N1CCC[C@@H](Nc2cc(Cl)cc(C(F)(F)F)c2)C1=O [VECABRUTINIB]
IC50 [14]: 2.9 nM

Second part, the molecule after the results:

IC50 (cells): 2130 nM
Structure (SMILES): C=CC(=O)Nc1cccc(Oc2nc(Nc3ccc(N4CCN(C)CC4)cc3OC)ncc2Cl)c1

DC50 [1]: 14.6 nM | DC50 [2]: 14.9 nM
Structure (SMILES): Nc1ncnc2c1c(-c1ccc(Oc3ccccc3)cc1)nn2[C@@H]1CCCN(CCOCCOCC(=O)Nc2ccc3c(c2)CN(C2CCC(=O)NC2=O)C3=O)C1 (some centres undefined)

IC50 [3]: 5.1 nM
Structure (SMILES): Cc1c(NC(=O)c2ccc(C(C)(C)C)cc2)cccc1-c1cn(C)c(=O)c(Nc2ccc(C(=O)N3CCN(CCCCCCNC(=O)CNc4cccc5c4C(=O)N(C4CCC(=O)NC4=O)C5=O)CC3)cc2)n1 (centres undefined)

DC50 [4]: 18 nM | DC50 [5]: 18 nM | DC50 [6]: 18 nM | DC50 [7]: 18 nM | DC50 [8]: 18 nM | DC50 [9]: 18 nM
Structure (SMILES): Nc1ncnc2c1c(-c1ccc(Oc3ccccc3)cc1)nn2[C@@H]1CCCN(C(=O)c2cn(CCOCCOCCOCCCc3ccc4c(c3)CN(C3CCC(=O)NC3=O)C4=O)nn2)C1 (some centres undefined)
